Data taken from ChEMBL document CHEMBL5303573, “Mapping human microbiome drug metabolism by gut bacteria and their genes” (Nature, 2019).

Legend:
[1] = The drug is tested on Bacteroides caccae strain: ATCC43185 for biotransformation. The drug concentrations were measured before and after a 12-h incubation by liquid-chromatography-coupled mass spectrometry (LC–MS); details: 2 µM
[2] = The drug is tested on Bacteroides fragilis strain: HMW610 for biotransformation. The drug concentrations were measured before and after a 12-h incubation by liquid-chromatography-coupled mass spectrometry (LC–MS); details: 2 µM
[3] = The drug is tested on Bacteroides fragilis strain: HMW615 for biotransformation. The drug concentrations were measured before and after a 12-h incubation by liquid-chromatography-coupled mass spectrometry (LC–MS); details: 2 µM
[4] = The drug is tested on Bacteroides ovatus strain: ATCC8483 for biotransformation. The drug concentrations were measured before and after a 12-h incubation by liquid-chromatography-coupled mass spectrometry (LC–MS); details: 2 µM
[5] = The drug is tested on Bacteroides uniformis strain: ATCC8492 for biotransformation. The drug concentrations were measured before and after a 12-h incubation by liquid-chromatography-coupled mass spectrometry (LC–MS); details: 2 µM
[6] = The drug is tested on Bacteroides xylanisolvens strain: DSM18836 for biotransformation. The drug concentrations were measured before and after a 12-h incubation by liquid-chromatography-coupled mass spectrometry (LC–MS); details: 2 µM
[7] = The drug is tested on Odoribacter splanchnicus strain: fecal isolate for biotransformation. The drug concentrations were measured before and after a 12-h incubation by liquid-chromatography-coupled mass spectrometry (LC–MS); details: 2 µM
[8] = The drug is tested on Parabacteroides merdae strain: ATCC43184 for biotransformation. The drug concentrations were measured before and after a 12-h incubation by liquid-chromatography-coupled mass spectrometry (LC–MS); details: 2 µM
[9] = The drug is tested on Blautia hansenii strain: DSM20583 for biotransformation. The drug concentrations were measured before and after a 12-h incubation by liquid-chromatography-coupled mass spectrometry (LC–MS); details: 2 µM
[10] = The drug is tested on Blautia luti strain: DSM14534 for biotransformation. The drug concentrations were measured before and after a 12-h incubation by liquid-chromatography-coupled mass spectrometry (LC–MS); format: ADME; set-up: dose 2 uM, timepoint 0 vs 12 hours; details: 2 µM
[11] = The drug is tested on Dorea formicigenerans strain: ATCC27755 for biotransformation. The drug concentrations were measured before and after a 12-h incubation by liquid-chromatography-coupled mass spectrometry (LC–MS); details: 2 µM
[12] = The drug is tested on Enterococcus faecalis strain: V583 for biotransformation. The drug concentrations were measured before and after a 12-h incubation by liquid-chromatography-coupled mass spectrometry (LC–MS); details: 2 µM
[13] = The drug is tested on Ruminococcus torques strain: ATCC27756 for biotransformation. The drug concentrations were measured before and after a 12-h incubation by liquid-chromatography-coupled mass spectrometry (LC–MS); format: ADME; set-up: dose 2 uM, timepoint 0 vs 12 hours; details: 2 µM
[14] = The drug is tested on Edwardsiella tarda strain: ATCC23685 for biotransformation. The drug concentrations were measured before and after a 12-h incubation by liquid-chromatography-coupled mass spectrometry (LC–MS); details: 2 µM
[15] = The drug is tested on Providencia rettgeri strain: DSM1131 for biotransformation. The drug concentrations were measured before and after a 12-h incubation by liquid-chromatography-coupled mass spectrometry (LC–MS); format: ADME; set-up: dose 2 uM, timepoint 0 vs 12 hours; details: 2 µM
[16] = bifidobacterium adolescentis, 12 h, 2 µM
Description: The drug is tested on Bifidobacterium adolescentis strain: ATCC 15703 for biotransformation. The drug concentrations were measured before and after a 12-h incubation by liquid-chromatography-coupled mass spectrometry (LC–MS)

[17] = bacteroides thetaiotaomicron, 12 h, 2 µM
Description: The drug is tested on Bacteroides thetaiotaomicron strain: VPI-5482 for biotransformation. The drug concentrations were measured before and after a 12-h incubation by liquid-chromatography-coupled mass spectrometry (LC–MS)

[18] = enterocloster bolteae, 12 h, 2 µM
Description: The drug is tested on Clostridium bolteae strain: ATCCBAA-613 for biotransformation. The drug concentrations were measured before and after a 12-h incubation by liquid-chromatography-coupled mass spectrometry (LC–MS)

[19] = limosilactobacillus reuteri cf48-3a, 12 h, 2 µM
Description: The drug is tested on Lactobacillus reuteri CF48-3A strain: BEI HM-102 for biotransformation. The drug concentrations were measured before and after a 12-h incubation by liquid-chromatography-coupled mass spectrometry (LC–MS)

[20] = akkermansia muciniphila, 12 h, 2 µM
Description: The drug is tested on Akkermansia muciniphila strain: ATCC BAA-835 for biotransformation. The drug concentrations were measured before and after a 12-h incubation by liquid-chromatography-coupled mass spectrometry (LC–MS)

Q: Which results are given for C[C@H]1O[C@@H](O[C@H]2[C@@H](O)C[C@H](O[C@H]3[C@@H](O)C[C@H](O[C@H]4CC[C@@]5(C)[C@H](CC[C@@H]6[C@@H]5C[C@@H](O)[C@]5(C)[C@@H](C7=CC(=O)OC7)CC[C@]65O)C4)O[C@@H]3C)O[C@@H]2C)C[C@H](O)[C@@H]1O [DIGOXIN]?
A: Bacterial Biotransformation [1]: Compound NOT metabolized; Bacterial Biotransformation [2]: Compound metabolized; Bacterial Biotransformation [3]: Compound metabolized; Bacterial Biotransformation [4]: Compound metabolized; Bacterial Biotransformation [5]: Compound metabolized; Bacterial Biotransformation [6]: Compound metabolized; Bacterial Biotransformation [7]: Compound metabolized; Bacterial Biotransformation [8]: Compound metabolized; Bacterial Biotransformation [9]: Compound metabolized; Bacterial Biotransformation [10]: Compound NOT metabolized; Bacterial Biotransformation [11]: Compound NOT metabolized; Bacterial Biotransformation [12]: Compound NOT metabolized; Bacterial Biotransformation [13]: Compound NOT metabolized; Bacterial Biotransformation [14]: Compound NOT metabolized; Bacterial Biotransformation [15]: Compound NOT metabolized; Bacterial Biotransformation [16]: Compound NOT metabolized; Bacterial Biotransformation [17]: Compound metabolized; Bacterial Biotransformation [18]: Compound NOT metabolized; Bacterial Biotransformation [19]: Compound NOT metabolized; Bacterial Biotransformation [20]: Compound NOT metabolized

Q: Which results are given for CCC(C)n1ncn(-c2ccc(N3CCN(c4ccc(OCC5COC(Cn6cncn6)(c6ccc(Cl)cc6Cl)O5)cc4)CC3)cc2)c1=O (stereo not given) [ITRACONAZOLE]?
A: Bacterial Biotransformation [1]: Compound NOT metabolized; Bacterial Biotransformation [2]: Compound NOT metabolized; Bacterial Biotransformation [3]: Compound NOT metabolized; Bacterial Biotransformation [4]: Compound NOT metabolized; Bacterial Biotransformation [5]: Compound NOT metabolized; Bacterial Biotransformation [6]: Compound NOT metabolized; Bacterial Biotransformation [7]: Compound NOT metabolized; Bacterial Biotransformation [8]: Compound NOT metabolized; Bacterial Biotransformation [9]: Compound metabolized; Bacterial Biotransformation [10]: Compound NOT metabolized; Bacterial Biotransformation [11]: Compound NOT metabolized; Bacterial Biotransformation [12]: Compound NOT metabolized; Bacterial Biotransformation [13]: Compound NOT metabolized; Bacterial Biotransformation [14]: Compound NOT metabolized; Bacterial Biotransformation [15]: Compound NOT metabolized; Bacterial Biotransformation [16]: Compound NOT metabolized; Bacterial Biotransformation [17]: Compound NOT metabolized; Bacterial Biotransformation [18]: Compound NOT metabolized; Bacterial Biotransformation [19]: Compound NOT metabolized; Bacterial Biotransformation [20]: Compound NOT metabolized

Q: What does the source list for COc1ccc2c(c1)c(CC(=O)O)c(C)n2C(=O)c1ccc(Cl)cc1 [INDOMETHACIN]?
A: Bacterial Biotransformation [1]: Compound metabolized; Bacterial Biotransformation [2]: Compound NOT metabolized; Bacterial Biotransformation [3]: Compound NOT metabolized; Bacterial Biotransformation [4]: Compound metabolized; Bacterial Biotransformation [5]: Compound metabolized; Bacterial Biotransformation [6]: Compound metabolized; Bacterial Biotransformation [7]: Compound metabolized; Bacterial Biotransformation [8]: Compound metabolized; Bacterial Biotransformation [9]: Compound NOT metabolized; Bacterial Biotransformation [10]: Compound NOT metabolized; Bacterial Biotransformation [11]: Compound NOT metabolized; Bacterial Biotransformation [12]: Compound NOT metabolized; Bacterial Biotransformation [13]: Compound NOT metabolized; Bacterial Biotransformation [14]: Compound NOT metabolized; Bacterial Biotransformation [15]: Compound NOT metabolized; Bacterial Biotransformation [16]: Compound NOT metabolized; Bacterial Biotransformation [17]: Compound metabolized; Bacterial Biotransformation [18]: Compound metabolized; Bacterial Biotransformation [19]: Compound metabolized; Bacterial Biotransformation [20]: Compound metabolized

Q: Which results are given for CN1CCc2c(c3ccccc3n2Cc2ccccc2)C1.CN1CCc2c(c3ccccc3n2Cc2ccccc2)C1.O=S(=O)(O)c1cccc2c(S(=O)(=O)O)cccc12?
A: Bacterial Biotransformation [1]: Compound NOT metabolized; Bacterial Biotransformation [2]: Compound NOT metabolized; Bacterial Biotransformation [3]: Compound NOT metabolized; Bacterial Biotransformation [4]: Compound NOT metabolized; Bacterial Biotransformation [5]: Compound NOT metabolized; Bacterial Biotransformation [6]: Compound NOT metabolized; Bacterial Biotransformation [7]: Compound NOT metabolized; Bacterial Biotransformation [8]: Compound NOT metabolized; Bacterial Biotransformation [9]: Compound NOT metabolized; Bacterial Biotransformation [10]: Compound NOT metabolized; Bacterial Biotransformation [11]: Compound NOT metabolized; Bacterial Biotransformation [12]: Compound NOT metabolized; Bacterial Biotransformation [13]: Compound NOT metabolized; Bacterial Biotransformation [14]: Compound NOT metabolized; Bacterial Biotransformation [15]: Compound NOT metabolized; Bacterial Biotransformation [16]: Compound NOT metabolized; Bacterial Biotransformation [17]: Compound NOT metabolized; Bacterial Biotransformation [18]: Compound NOT metabolized; Bacterial Biotransformation [19]: Compound NOT metabolized; Bacterial Biotransformation [20]: Compound NOT metabolized

Q: Which “Bacterial Biotransformation” value [1] does the source give for O=c1[nH]c2ccccc2n1CCCN1CCC(n2c(=O)[nH]c3cc(Cl)ccc32)CC1 [DOMPERIDONE] here?
A: Compound NOT metabolized

Q: And the “Bacterial Biotransformation” value [2]?
A: Compound NOT metabolized

Q: What about the “Bacterial Biotransformation” value [3] of the same molecule?
A: Compound NOT metabolized

Q: What about the “Bacterial Biotransformation” value [4] of the same molecule?
A: Compound NOT metabolized

Q: What about the “Bacterial Biotransformation” value [5] of the same molecule?
A: Compound NOT metabolized

Q: What about the “Bacterial Biotransformation” value [6] of the same molecule?
A: Compound NOT metabolized

Q: What about the “Bacterial Biotransformation” value [7] of the same molecule?
A: Compound NOT metabolized

Q: And the “Bacterial Biotransformation” value [8]?
A: Compound NOT metabolized

Q: And the “Bacterial Biotransformation” value [9]?
A: Compound NOT metabolized

Q: What about the “Bacterial Biotransformation” value [10] of the same molecule?
A: Compound NOT metabolized

Q: And the “Bacterial Biotransformation” value [11]?
A: Compound NOT metabolized

Q: And the “Bacterial Biotransformation” value [12]?
A: Compound NOT metabolized

Q: And the “Bacterial Biotransformation” value [13]?
A: Compound NOT metabolized

Q: What about the “Bacterial Biotransformation” value [14] of the same molecule?
A: Compound NOT metabolized

Q: And the “Bacterial Biotransformation” value [15]?
A: Compound NOT metabolized

Q: What about the “Bacterial Biotransformation” value [16] of the same molecule?
A: Compound NOT metabolized

Q: What about the “Bacterial Biotransformation” value [17] of the same molecule?
A: Compound NOT metabolized

Q: And the “Bacterial Biotransformation” value [18]?
A: Compound NOT metabolized

Q: What about the “Bacterial Biotransformation” value [19] of the same molecule?
A: Compound NOT metabolized

Q: What about the “Bacterial Biotransformation” value [20] of the same molecule?
A: Compound NOT metabolized
